In the NIST ThermoML archive (doi:10.1016/j.jct.2012.02.017):

Assays:
[1] = Ring tensiometer
[2] = xn = mol fraction of the nth substance listed; conditions: Ring tensiometer

CCO [ethanol]
[1]
Conditions	surface tension liquid-gas [mN/m]
288.15 K	22.08
298.15 K	21.19
308.15 K	20.35
318.15 K	20.18

CO [methanol]
[1]
Conditions	surface tension liquid-gas [mN/m]
288.15 K	22.37
298.15 K	21.64
308.15 K	20.94
318.15 K	19.93

CCCO [propan-1-ol]
[1]
Conditions	surface tension liquid-gas [mN/m]
288.15 K	23.34
298.15 K	22.54
308.15 K	21.62
318.15 K	20.99

[2H]O[2H] [water-d2]
[1]
Conditions	surface tension liquid-gas [mN/m]
288.15 K	73.59
298.15 K	71.87
308.15 K	70.21
318.15 K	68.84

[2H]O[2H] [water-d2] + CCCO
surface tension liquid-gas [mN/m], [2]
Conditions	288.15 K	298.15 K	308.15 K	318.15 K
x2 = 0.0007	70.61	68.81	67.5	66.16
x2 = 0.002	66.37	63.94	62.32	61.9
x2 = 0.0033	62.9	58.5	56.44	54.18
x2 = 0.0047	60.07	55.76	53.57	50.4
x2 = 0.006	57.59	54.16	52.75	48.26
x2 = 0.0099	52.32	48.49	46.75	45.22
x2 = 0.0165	45.84	43.67	40.52	39.54
x2 = 0.0255	41.34	39.38	38.39	37.11
x2 = 0.038	36.34	34.78	33.31	32.45
x2 = 0.0622	29	28.09	27.45	27.03
x2 = 0.138	25.81	24.9	24.75	23.58
x2 = 0.1851	25.78	25.09	24.19	23.62
x2 = 0.2272	25.17	24.99	24.38	23.37
x2 = 0.351	24.57	23.79	23.5	22.88
x2 = 0.4933	24.2	23.58	22.8	22.12
x2 = 0.6187	23.84	22.94	22.54	21.8
x2 = 0.8296	23.48	22.64	22.46	21.64

[2H]O[2H] [water-d2] + CCO
surface tension liquid-gas [mN/m], [2]
Conditions	288.15 K	298.15 K	308.15 K	318.15 K
x2 = 0.0008	72.5	70.96	69.43	67.73
x2 = 0.0016	71.29	69.78	68.35	66.43
x2 = 0.0023	70.28	68.67	67.12	65.55
x2 = 0.0039	68.68	66.88	65.22	63.52
x2 = 0.007	65.31	63.61	61.92	60.23
x2 = 0.0116	62.13	59.42	58.1	56.98
x2 = 0.0191	57.62	53.65	52.63	51.86
x2 = 0.0295	52.54	50.9	48.05	47.3
x2 = 0.044	47.97	46.07	44.17	42.27
x2 = 0.0716	41.94	38.62	36.3	33.32
x2 = 0.1103	36.22	34.15	33.1	31.3
x2 = 0.157	32	30.33	29.1	27.58
x2 = 0.1991	30.52	29.16	28.14	27.03
x2 = 0.2462	29.15	28.17	27.39	26.56
x2 = 0.345	27.29	25.99	25.03	24.63
x2 = 0.4209	26.21	25.23	23.67	22.85
x2 = 0.4811	25.3	24.59	23.56	22.7
x2 = 0.5703	24.34	23.44	23.02	22.3
x2 = 0.6752	23.36	22.45	21.97	21.57
x2 = 0.7572	22.98	21.59	20.92	20.9
x2 = 0.8618	22.37	21.48	20.41	20.11

[2H]O[2H] [water-d2] + CO
surface tension liquid-gas [mN/m], [2]
Conditions	288.15 K	298.15 K	308.15 K	318.15 K
x2 = 0.0045	71.03	69.55	68.1	66.54
x2 = 0.0154	66.2	65.13	64.17	62.8
x2 = 0.0304	61.24	60.45	59.67	58.88
x2 = 0.0509	56.43	55.33	54.09	52.97
x2 = 0.0707	52.83	52.04	51.25	50.48
x2 = 0.0896	50.23	49.45	48.65	47.92
x2 = 0.1252	45.79	45.01	44.56	42.8
x2 = 0.1737	42.45	41.8	40.26	39.66
x2 = 0.2171	38.51	38.07	37.7	36.61
x2 = 0.2684	36.01	35.49	35.1	34.16
x2 = 0.3133	34.68	34.05	33.49	32.65
x2 = 0.353	33.4	32.79	32.05	31.79
x2 = 0.4271	31.83	30.79	30.29	29.42
x2 = 0.5279	29.14	29.01	28.68	27.75
x2 = 0.691	26.15	25.65	25.06	24.38
x2 = 0.8173	23.49	22.96	22.48	21.75
